Data taken from patent US10173991B2, “Sulfone amide linked benzothiazole inhibitors of endothelial lipase” (BRISTOL-MYERS SQUIBB COMPANY, priority 2014, dated 2019).

target: Endothelial lipase (EL) (Homo sapiens (Human), UniProt Q9Y5X9); assay: Endothelial lipase (EL) enzymatic assay with fluorescent substrate A10070 in DMPG vesicles; format: biochemical; conditions: not given
How it was run: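 EL from conditioned medium of HT-1080 cells engineered to overexpress endogenous EL; HL partially purified from conditioned medium of HL-overexpressing COS cells. Enzyme preincubated with compound 30 min at 37° C in 50 mM HEPES pH 8.0, 50 mM NaCl, 1 mM CaCl2; DMPG vesicles carrying FRET substrate (0.11 mole fraction) then added.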

Endothelial lipase (EL), sequence (Q9Y5X9 21-500): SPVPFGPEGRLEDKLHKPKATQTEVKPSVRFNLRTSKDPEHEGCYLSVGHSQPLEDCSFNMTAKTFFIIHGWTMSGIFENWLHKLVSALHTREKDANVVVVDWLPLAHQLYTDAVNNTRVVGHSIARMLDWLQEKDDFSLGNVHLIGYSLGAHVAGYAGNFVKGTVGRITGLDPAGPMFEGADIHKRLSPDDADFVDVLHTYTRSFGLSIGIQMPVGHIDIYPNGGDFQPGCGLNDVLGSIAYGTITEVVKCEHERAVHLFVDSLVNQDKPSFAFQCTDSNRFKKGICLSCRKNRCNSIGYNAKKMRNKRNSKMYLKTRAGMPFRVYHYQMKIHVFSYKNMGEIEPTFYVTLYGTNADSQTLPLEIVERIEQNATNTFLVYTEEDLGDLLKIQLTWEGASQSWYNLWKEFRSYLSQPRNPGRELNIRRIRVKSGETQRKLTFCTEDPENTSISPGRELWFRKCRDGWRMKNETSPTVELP

SMILES | IC50 [µM]
CS(=O)(=O)C(C(=O)NCC(=O)NC1CC1)c1nc2ccc(-c3ccc(-n4cccn4)cc3)cc2s1 (stereo not shown) [Example 373, N-[(cyclopropyl-carbamoyl)methyl]-2-methanesulfonyl-2-{6-[4-(1H-pyrazol-1-yl)phenyl]-1,3-benzothiazol-2-yl}acetamide] | 0.002
CN1C(=O)Cc2cc(-c3cc4sc(C(C(=O)NCC(=O)NC5CC5)S(C)(=O)=O)nc4cc3F)ccc21 (stereo not shown) [Example 374, N-[(cyclopropyl-carbamoyl)methyl]-2-[5-fluoro-6-(1-methyl-2-oxo-2,3-dihydro-1H-indol-5-yl)-1,3-benzothiazol-2-yl]-2-methanesulfonyl-acetamide] | 0.009
CS(=O)(=O)C(C(=O)NCC(=O)NC1CC1)c1nc2cc(F)c(-c3ccc(-n4cccn4)cc3)cc2s1 (stereo not shown) [Example 375, N-[(cyclopropyl-carbamoyl)methyl]-2-{5-fluoro-6-[4-(1H-pyrazol-1-yl)phenyl]-1,3-benzothiazol-2-yl}-2-methanesulfonyl-acetamide] | 0.002
COCCS(=O)(=O)C(C(=O)NCC(=O)NCCOCc1ccccc1)c1nc2ccc(-c3ccc(F)nc3)cc2s1 (stereo not shown) [Example 377, N-({[2-(benzyloxy)ethyl]carbamoyl}methyl)-2-[6-(6-fluoropyridin-3-yl)-1,3-benzothiazol-2-yl]-2-(2-methoxyethane-sulfonyl)acetamide] | 0.001
COCCS(=O)(=O)C(C(=O)NCC(=O)NCC(F)(F)F)c1nc2ccc(-c3ccc(F)nc3)cc2s1 (stereo not shown) [Example 378, 2-[6-(6-fluoropyridin-3-yl)-1,3-benzothiazol-2-yl]-2-(2-methoxyethane-sulfonyl)-N-{[(2,2,2-trifluoroethyl)carbamoyl]methyl} acetamide] | 0.198
COCCNC(=O)CNC(=O)C(c1nc2ccc(-c3ccc(F)nc3)cc2s1)S(=O)(=O)CCOC (stereo not shown) [Example 379, 2-[6-(6-fluoropyridin-3-yl)-1,3-benzothiazol-2-yl]-2-(2-methoxyethane-sulfonyl)-N-{[(2-methoxyethyl)carbamoyl]methyl} acetamide] | 0.108
COCCS(=O)(=O)C(C(=O)NCC(=O)NCCOc1ccccc1)c1nc2ccc(-c3ccc(F)nc3)cc2s1 (stereo not shown) [Example 380, 2-[6-(6-fluoropyridin-3-yl)-1,3-benzothiazol-2-yl]-2-(2-methoxyethane-sulfonyl)-N-{[(2-phenoxyethyl)carbamoyl]methyl} acetamide] | 0.001
COCCS(=O)(=O)C(C(=O)NCC(=O)NC1(C)CC1)c1nc2ccc(-c3ccc(F)nc3)cc2s1 (stereo not shown) [Example 381, 2-[6-(6-fluoropyridin-3-yl)-1,3-benzothiazol-2-yl]-2-(2-methoxyethane-sulfonyl)-N-{[(1-methylcyclopropyl)carbamoyl]methyl} acetamide] | 0.015
COCCS(=O)(=O)C(C(=O)NCC(=O)NCC1CC1)c1nc2ccc(-c3ccc(F)nc3)cc2s1 (stereo not shown) [Example 382, N-{[(cyclopropyl-methyl)carbamoyl]methyl}-2-[6-(6-fluoropyridin-3-yl)-1,3-benzothiazol-2-yl]-2-(2-methoxyethane-sulfonyl)acetamide] | 0.022
COCCS(=O)(=O)C(C(=O)NCC(=O)Nc1ccccc1)c1nc2ccc(-c3ccc(F)nc3)cc2s1 (stereo not shown) [Example 383, 2-[6-(6-fluoropyridin-3-yl)-1,3-benzothiazol-2-yl]-2-(2-methoxyethane-sulfonyl)-N-[(phenyl-carbamoyl)methyl]acetamide] | 0.003
COCCS(=O)(=O)C(C(=O)NCC(=O)NC1COC1)c1nc2ccc(-c3ccc(F)nc3)cc2s1 (stereo not shown) [Example 384, 2-[6-(6-fluoropyridin-3-yl)-1,3-benzothiazol-2-yl]-2-(2-methoxyethane-sulfonyl)-N-{[(oxetan-3-yl)carbamoyl]methyl} acetamide] | 0.013
COCCS(=O)(=O)C(C(=O)NCC(=O)NC1CC1)c1nc2cc(-c3ccc(F)nc3)ccc2s1 (stereo not shown) [Example 385, N-[(cyclopropyl-carbamoyl)methyl]-2-[5-(6-fluoropyridin-3-yl)-1,3-benzothiazol-2-yl]-2-(2-methoxyethane-sulfonyl)acetamide] | 0.013
COCCS(=O)(=O)C(C(=O)NCC(=O)NC1COC1)c1nc2cc(-c3ccc(F)nc3)ccc2s1 (stereo not shown) [Example 386, 2-[5-(6-fluoropyridin-3-yl)-1,3-benzothiazol-2-yl]-2-(2-methoxyethane-sulfonyl)-N-{[(oxetan-3-yl)carbamoyl]methyl} acetamide] | 0.025
COCCS(=O)(=O)C(C(=O)NCC(=O)NC1(C)CCC1)c1nc2cc(-c3ccc(F)nc3)ccc2s1 (stereo not shown) [Example 387, 2-[5-(6-fluoropyridin-3-yl)-1,3-benzothiazol-2-yl]-2-(2-methoxyethane-sulfonyl)-N-{[(1-methylcyclobutyl)carbamoyl]methyl} acetamide] | 0.028
COCCS(=O)(=O)C(C(=O)NCC(=O)NC1(c2ccccn2)CC1)c1nc2ccc(-c3ccc(F)nc3)cc2s1 (stereo not shown) [Example 388, 2-[6-(6-fluoropyridin-3-yl)-1,3-benzothiazol-2-yl]-2-(2-methoxyethane-sulfonyl)-N-({[1-(pyridin-2-yl)cyclopropyl]carbamoyl}methyl) acetamide] | 0.048
COCCS(=O)(=O)C(C(=O)NCC(=O)NCC1CC1)c1nc2cc(-c3ccc(F)nc3)ccc2s1 (stereo not shown) [Example 389, N-{[(cyclopropyl-methyl)carbamoyl]methyl}-2-[5-(6-fluoropyridin-3-yl)-1,3-benzothiazol-2-yl]-2-(2-methoxyethane-sulfonyl)acetamide] | 0.059
COCCNC(=O)CNC(=O)C(c1nc2cc(-c3ccc(F)nc3)ccc2s1)S(=O)(=O)CCOC (stereo not shown) [Example 390, 2-[5-(6-fluoropyridin-3-yl)-1,3-benzothiazol-2-yl]-2-(2-methoxyethane-sulfonyl)-N-{[(2-methoxyethyl)carbamoyl]methyl} acetamide] | 0.102
COCCS(=O)(=O)C(C(=O)NCC(=O)NC1(c2ncon2)CC1)c1nc2ccc(-c3ccc(F)nc3)cc2s1 (stereo not shown) [Example 391, 2-[6-(6-fluoropyridin-3-yl)-1,3-benzothiazol-2-yl]-2-(2-methoxyethane-sulfonyl)-N-({[1-(1,2,4-oxadiazol-3-yl)cyclopropyl]carbamoyl}methyl) acetamide] | 0.068
COCCS(=O)(=O)C(C(=O)NCC(=O)NC1(C)CC1)c1nc2cc(-c3ccc(F)nc3)ccc2s1 (stereo not shown) [Example 392, 2-[5-(6-fluoropyridin-3-yl)-1,3-benzothiazol-2-yl]-2-(2-methoxyethane-sulfonyl)-N-{[(1-methylcyclopropyl)carbamoyl]methyl} acetamide] | 0.014
COCCS(=O)(=O)C(C(=O)NCC(=O)NC1CC1)c1nc2cc(-c3cccc(C(=O)NCC(F)(F)F)c3)ccc2s1 (stereo not shown) [Example 394, 3-[2-({[(cyclopropyl-carbamoyl)methyl]carbamoyl}(2-methoxyethane-sulfonyl)methyl)-1,3-benzothiazol-5-yl]-N-(2,2,2-trifluoroethyl) benzamide] | 0.004
COCCS(=O)(=O)C(C(=O)NCC(=O)NC1CC1)c1nc2cc(-c3cccc(C(=O)N4CCOCC4)c3)ccc2s1 (stereo not shown) [Example 395, N-[(cyclopropyl-carbamoyl)methyl]-2-(2-methoxyethane-sulfonyl)-2-{5-[3-(morpholine-4-arbonyl)phenyl}-1,3-benzothiazol-2-yl}acetamide] | 0.004
COCCS(=O)(=O)C(C(=O)NCC(=O)NC1CC1)c1nc2cc(-c3cccc(C(=O)N4CCC(F)(F)C4)c3)ccc2s1 (stereo not shown) [Example 396, N-[(cyclopropyl-carbamoyl)methyl]-2-{5-[3-(3,3-difluoro-pyrrolidine-1-carbonyl)phenyl]-1,3-benzothiazol-2-yl}-2-(2-methoxyethane-sulfonyl)acetamide] | 0.008
COCCS(=O)(=O)C(C(=O)NCC(=O)NC1CC1)c1nc2cc(-c3cccc(C(=O)N4CCN(C)CC4)c3)ccc2s1 (stereo not shown) [Example 397, N-[(cyclopropyl-carbamoyl)methyl]-2-(2-methoxyethane-sulfonyl)-2-{5-[3-(4-methylpiperazine-1-carbonyl)phenyl]-1,3-benzothiazol-2-yl}acetamide] | 0.019
COCCS(=O)(=O)C(C(=O)NCC(=O)NC1CC1)c1nc2cc(-c3cccc(C(=O)N(C)C)c3)ccc2s1 (stereo not shown) [Example 398, 3-[2-({[(cyclopropyl-carbamoyl)methyl]carbamoyl}(2-methoxyethane-sulfonyl)methyl)-1,3-benzothiazol-5-yl]-N,N-dimethyl-benzamide] | 0.038
COCCS(=O)(=O)C(C(=O)NCC(=O)NC1CC1)c1nc2cc(-c3cccc(C(=O)NCCO)c3)ccc2s1 (stereo not shown) [Example 399, 3-[2-({[(cyclopropyl-carbamoyl)methyl]carbamoyl}(2-methoxyethane-sulfonyl)methyl)-1,3-benzothiazol-5-yl]-N-(2-hydroxyethyl) benzamide] | 0.063
COCCNC(=O)c1cccc(-c2ccc3sc(C(C(=O)NCC(=O)NC4CC4)S(=O)(=O)CCOC)nc3c2)c1 (stereo not shown) [Example 400, 3-[2-({[(cyclopropyl-carbamoyl)methyl]carbamoyl}(2-methoxyethane-sulfonyl)methyl)-1,3-benzothiazol-5-yl]-N-(2-methoxyethyl) benzamide] | 0.009

same assay, conditions: EL from conditioned media of HT-1080 cells; 30 min preincubation at 37° C.

SMILES | IC50 [µM]
COCCS(=O)(=O)C(C(=O)NCC(=O)NC1CC1)c1nc2ccc(-c3ccc(F)nc3)cc2s1 (stereo not shown) [Example 376, N-[(Cyclopropylcarbamoyl)methyl]-2-[6-(6-fluoropyridin-3-yl)-1,3-benzothiazol-2-yl]-2-(2-methoxyethanesulfonyl)acetamide] | 0.004
COCCS(=O)(=O)C(C(=O)NCC(=O)NC1CC1)c1nc2ccc(-c3ccc(C(=O)N(C)C4CC4)cc3)cc2s1 (stereo not shown) [Example 393, N-Cyclopropyl-4-(2-(2-((2-(cyclopropylamino)-2-oxoethyl)amino)-1-((2-methoxyethyl)sulfonyl)-2-oxoethyl)benzo[d]thiazol-6-yl)-N-methylbenzamide] | 0.033
